Measured values reported in ChEMBL document CHEMBL3797052 (Eur J Med Chem, 2016).

What was measured:
[1] = Antiproliferative activity against human SKOV3 cells assessed as growth inhibition after 48 hrs by sulforhodamine B assay; type: functional; settings: SK-OV-3, 48 h; for CC50: read-out: LC50 (the source's name)
SR [2] = experiment: Antiproliferative activity against human SR cells assessed as cell growth at 10^-7 M after 48 hrs by sulforhodamine B assay; type: functional; settings: read-out: Activity
KM12 = experiment: Antiproliferative activity against human KM12 cells assessed as cell growth at 10^-7 M after 48 hrs by sulforhodamine B assay; type: functional; settings: KM12, 48 h, read-out: Activity
[3] = Antiproliferative activity against human SNB75 cells assessed as cell growth at 10^-7 M after 48 hrs by sulforhodamine B assay; type: functional; settings: SNB-75, 48 h, read-out: Activity
[4] = Antiproliferative activity against human IGROV1 cells assessed as growth inhibition after 48 hrs by sulforhodamine B assay; type: functional; settings: IGROV-1, 48 h; for CC50: read-out: LC50 (the source's name)
Malme-3M = experiment: Antiproliferative activity against human MALME-3M cells assessed as cell growth at 10^-7 M after 48 hrs by sulforhodamine B assay; type: functional; settings: read-out: Activity
SK-MEL-5 [5] = experiment: Antiproliferative activity against human SK-MEL-5 cells assessed as cell growth at 10^-7 M after 48 hrs by sulforhodamine B assay; type: functional; settings: SK-MEL-5, 48 h, read-out: Activity
[6] = Antiproliferative activity against human OVCAR5 cells assessed as cell growth at 10^-7 M after 48 hrs by sulforhodamine B assay; type: functional; settings: OVCAR-5, 48 h, read-out: Activity
[7] = Antiproliferative activity against human TK10 cells assessed as cell growth at 10^-7 M after 48 hrs by sulforhodamine B assay; type: functional; settings: TK-10, 48 h, read-out: Activity
[8] = Antiproliferative activity against human DU145 cells assessed as cell growth at 10^-7 M after 48 hrs by sulforhodamine B assay; type: functional; settings: DU-145, 48 h, read-out: Activity
MDA-MB-231 = experiment: Antiproliferative activity against human MDA-MB-231 cells assessed as cell growth at 10^-7 M after 48 hrs by sulforhodamine B assay; type: functional; settings: MDA-MB-231, 48 h, read-out: Activity
[9] = biological target: Serine/threonine-protein kinase B-raf (Homo sapiens, UniProt P15056, V600E); experiment: Inhibition of BRAF V600E mutant (unknown origin) measured after 40 mins by scintillation counting
CYP2C9 = CYP2C9 (Homo sapiens, UniProt P11712); experiment: Inhibition of recombinant human CYP2C9 assessed as remaining enzyme activity using CYP2C9 green as substrate at 10 uM after 5 mins in presence of NADP by fluorescence plate reader analysis; type: ADME; settings: recombinant human CYP2C9, probe CYP2C9 green, read-out: Activity
[10] = biological target: Voltage-gated inwardly rectifying potassium channel KCNH2 (Homo sapiens, UniProt Q12809); experiment: Inhibition of human ERG assessed as reduction in channel current by automated patch-clamp electrophysiology assay
[11] = Antiproliferative activity against human MOLT4 cells assessed as cell growth at 10^-8 M after 48 hrs by sulforhodamine B assay; type: functional; settings: MOLT-4, 48 h, read-out: Activity
[12] = Antiproliferative activity against human HOP92 cells assessed as cell growth at 10^-8 M after 48 hrs by sulforhodamine B assay; type: functional; settings: HOP-92, 48 h, read-out: Activity
NCI-H226 = experiment: Antiproliferative activity against human NCI-H226 cells assessed as cell growth at 10^-8 M after 48 hrs by sulforhodamine B assay; type: functional; settings: NCI-H226, 48 h, read-out: Activity
SR [13] = experiment: Antiproliferative activity against human SR cells assessed as cell growth at 10^-6 M after 48 hrs by sulforhodamine B assay; type: functional; settings: read-out: Activity
EKVX = experiment: Antiproliferative activity against human EKVX cells assessed as cell growth at 10^-6 M after 48 hrs by sulforhodamine B assay; type: functional; settings: read-out: Activity
NCI-H322M = experiment: Antiproliferative activity against human NCI-H322M cells assessed as cell growth at 10^-6 M after 48 hrs by sulforhodamine B assay; type: functional; settings: read-out: Activity
[14] = Antiproliferative activity against human SW620 cells assessed as cell growth at 10^-6 M after 48 hrs by sulforhodamine B assay; type: functional; settings: SW-620, 48 h, read-out: Activity
[15] = Antiproliferative activity against human RPMI8226 cells assessed as cell growth at 10^-4 M after 48 hrs by sulforhodamine B assay; type: functional; settings: RPMI-8226, 48 h, read-out: Activity
SR [16] = experiment: Antiproliferative activity against human SR cells assessed as cell growth at 10^-4 M after 48 hrs by sulforhodamine B assay; type: functional; settings: read-out: Activity
NCI-H460 = experiment: Antiproliferative activity against human NCI-H460 cells assessed as cell growth at 10^-4 M after 48 hrs by sulforhodamine B assay; type: functional; settings: NCI-H460, 48 h, read-out: Activity
NCI-H522 = experiment: Antiproliferative activity against human NCI-H522 cells assessed as cell growth at 10^-4 M after 48 hrs by sulforhodamine B assay; type: functional; settings: NCI-H522, 48 h, read-out: Activity
[17] = Antiproliferative activity against human COLO205 cells assessed as cell growth at 10^-4 M after 48 hrs by sulforhodamine B assay; type: functional; settings: COLO 205, 48 h, read-out: Activity
[18] = Antiproliferative activity against human SF539 cells assessed as cell growth at 10^-4 M after 48 hrs by sulforhodamine B assay; type: functional; settings: SF-539, 48 h, read-out: Activity
SK-MEL-5 [19] = experiment: Antiproliferative activity against human SK-MEL-5 cells assessed as cell growth at 10^-8 M after 48 hrs by sulforhodamine B assay; type: functional; settings: SK-MEL-5, 48 h, read-out: Activity
A498 = experiment: Antiproliferative activity against human A498 cells assessed as cell growth at 10^-8 M after 48 hrs by sulforhodamine B assay; type: functional; settings: A498, 48 h, read-out: Activity
SN12C [20] = experiment: Antiproliferative activity against human SN12C cells assessed as cell growth at 10^-8 M after 48 hrs by sulforhodamine B assay; type: functional; settings: read-out: Activity
MCF7 [21] = experiment: Antiproliferative activity against human MCF7 cells assessed as cell growth at 10^-8 M after 48 hrs by sulforhodamine B assay; type: functional; settings: MCF7, 48 h, read-out: Activity
ACHN = experiment: Antiproliferative activity against human ACHN cells assessed as cell growth at 10^-6 M after 48 hrs by sulforhodamine B assay; type: functional; settings: read-out: Activity
SN12C [22] = experiment: Antiproliferative activity against human SN12C cells assessed as cell growth at 10^-6 M after 48 hrs by sulforhodamine B assay; type: functional; settings: read-out: Activity
MCF7 [23] = experiment: Antiproliferative activity against human MCF7 cells assessed as cell growth at 10^-6 M after 48 hrs by sulforhodamine B assay; type: functional; settings: MCF7, 48 h, read-out: Activity
SN12C [24] = experiment: Antiproliferative activity against human SN12C cells assessed as cell growth at 10^-4 M after 48 hrs by sulforhodamine B assay; type: functional; settings: read-out: Activity
[25] = Antiproliferative activity against human PC3 cells assessed as cell growth at 10^-4 M after 48 hrs by sulforhodamine B assay; type: functional; settings: PC-3, 48 h, read-out: Activity
SK-MEL-5 [26] = experiment: Antiproliferative activity against human SK-MEL-5 cells assessed as growth inhibition after 48 hrs by sulforhodamine B assay; type: functional; settings: SK-MEL-5, 48 h

Chain of Serine/threonine-protein kinase B-raf (P15056 2-766 V600E limits assumed): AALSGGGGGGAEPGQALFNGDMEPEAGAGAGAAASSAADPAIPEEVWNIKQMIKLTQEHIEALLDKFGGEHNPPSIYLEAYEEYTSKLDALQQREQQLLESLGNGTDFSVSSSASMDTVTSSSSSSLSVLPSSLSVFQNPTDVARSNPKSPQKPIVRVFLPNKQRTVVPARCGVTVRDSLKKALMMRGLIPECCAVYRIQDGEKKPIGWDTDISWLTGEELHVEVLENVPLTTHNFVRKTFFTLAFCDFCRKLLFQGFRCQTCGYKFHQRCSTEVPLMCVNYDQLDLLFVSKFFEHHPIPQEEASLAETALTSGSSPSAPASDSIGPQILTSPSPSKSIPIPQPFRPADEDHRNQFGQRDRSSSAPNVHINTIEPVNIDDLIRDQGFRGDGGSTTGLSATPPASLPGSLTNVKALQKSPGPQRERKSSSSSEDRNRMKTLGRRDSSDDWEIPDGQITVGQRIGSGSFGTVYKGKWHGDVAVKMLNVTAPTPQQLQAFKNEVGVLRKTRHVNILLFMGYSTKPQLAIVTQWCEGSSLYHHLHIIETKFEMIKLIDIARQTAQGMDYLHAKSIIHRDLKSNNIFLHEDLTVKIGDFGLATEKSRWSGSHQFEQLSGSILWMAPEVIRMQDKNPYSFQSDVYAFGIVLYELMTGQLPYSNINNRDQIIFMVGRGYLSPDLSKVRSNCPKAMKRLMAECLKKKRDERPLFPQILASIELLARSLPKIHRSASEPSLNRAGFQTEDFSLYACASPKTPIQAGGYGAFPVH
Chain of CYP2C9 (P11712 whole entry): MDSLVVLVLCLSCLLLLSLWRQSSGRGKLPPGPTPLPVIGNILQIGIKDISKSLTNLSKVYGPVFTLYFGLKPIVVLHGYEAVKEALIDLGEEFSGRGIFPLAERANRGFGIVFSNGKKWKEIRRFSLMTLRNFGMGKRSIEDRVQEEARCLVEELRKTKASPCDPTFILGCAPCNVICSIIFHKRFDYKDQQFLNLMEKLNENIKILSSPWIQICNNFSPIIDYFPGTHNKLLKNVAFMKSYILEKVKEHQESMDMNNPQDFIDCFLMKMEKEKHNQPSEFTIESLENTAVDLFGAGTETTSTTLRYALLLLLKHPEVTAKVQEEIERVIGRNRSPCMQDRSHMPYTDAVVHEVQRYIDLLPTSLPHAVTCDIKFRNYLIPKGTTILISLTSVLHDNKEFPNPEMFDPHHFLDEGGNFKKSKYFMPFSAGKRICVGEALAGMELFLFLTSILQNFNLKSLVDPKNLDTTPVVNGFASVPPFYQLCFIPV
Chain of Voltage-gated inwardly rectifying potassium channel KCNH2 (Q12809 whole entry): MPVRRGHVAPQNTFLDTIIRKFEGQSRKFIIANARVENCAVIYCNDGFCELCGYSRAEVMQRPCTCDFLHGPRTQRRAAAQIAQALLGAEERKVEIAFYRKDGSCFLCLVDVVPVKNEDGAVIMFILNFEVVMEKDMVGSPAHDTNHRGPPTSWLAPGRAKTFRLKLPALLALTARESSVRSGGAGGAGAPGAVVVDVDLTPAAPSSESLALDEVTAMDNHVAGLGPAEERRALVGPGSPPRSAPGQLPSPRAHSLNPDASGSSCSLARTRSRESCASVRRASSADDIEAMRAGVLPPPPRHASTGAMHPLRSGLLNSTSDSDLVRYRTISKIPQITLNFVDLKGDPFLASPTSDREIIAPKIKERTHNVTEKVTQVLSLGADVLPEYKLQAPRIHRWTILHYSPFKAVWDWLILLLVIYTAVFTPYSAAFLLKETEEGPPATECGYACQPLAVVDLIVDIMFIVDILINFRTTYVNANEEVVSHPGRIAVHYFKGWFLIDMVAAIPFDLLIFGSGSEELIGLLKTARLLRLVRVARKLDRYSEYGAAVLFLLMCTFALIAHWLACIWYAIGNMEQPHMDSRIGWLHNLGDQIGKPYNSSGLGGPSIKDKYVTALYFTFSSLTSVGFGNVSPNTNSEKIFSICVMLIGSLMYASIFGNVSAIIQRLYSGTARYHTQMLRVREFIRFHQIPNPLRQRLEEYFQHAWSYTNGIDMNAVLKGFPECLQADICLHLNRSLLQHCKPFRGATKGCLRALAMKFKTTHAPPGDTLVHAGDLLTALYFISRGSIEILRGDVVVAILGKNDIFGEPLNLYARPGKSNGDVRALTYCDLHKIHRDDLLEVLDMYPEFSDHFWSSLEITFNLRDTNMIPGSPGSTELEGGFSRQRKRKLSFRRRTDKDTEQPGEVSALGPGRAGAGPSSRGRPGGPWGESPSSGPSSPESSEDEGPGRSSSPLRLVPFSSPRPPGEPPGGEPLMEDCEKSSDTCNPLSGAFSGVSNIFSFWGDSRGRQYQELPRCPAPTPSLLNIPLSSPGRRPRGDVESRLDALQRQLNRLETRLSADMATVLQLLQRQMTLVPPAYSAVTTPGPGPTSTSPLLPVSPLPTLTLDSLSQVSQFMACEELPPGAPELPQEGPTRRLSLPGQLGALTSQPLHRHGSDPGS

CNC(=O)c1cc(Oc2ccc3nc(NC(=O)Nc4ccc(Cl)c(C(F)(F)F)c4)sc3c2)ccn1
GI50 [1]: 1.89 µM
TGI [1]: 4.21 µM
CC50 [1]: 9.39 µM
growth at 0.1 µM (SR [2]): 105%
growth at 0.1 µM (KM12): 102%
growth at 0.1 µM [3]: 81%
GI50 [4]: 2.02 µM
TGI [4]: 5.12 µM
CC50 [4]: > 100 µM
growth at 0.1 µM (Malme-3M): 98%
growth at 0.1 µM (SK-MEL-5 [5]): 95%
growth at 0.1 µM [6]: 95%
growth at 0.1 µM [7]: 105%
growth at 0.1 µM [8]: 109%
growth at 0.1 µM (MDA-MB-231): 109%
IC50 [9]: 0.131 µM
activity at 5 min, 10 µM (CYP2C9): 98.5%
IC50 [10]: > 100 µM
growth at 0.01 µM [11]: 106%
growth at 0.01 µM [12]: 85%
growth at 0.01 µM (NCI-H226): 93%
growth at 1 µM (SR [13]): 15%
growth at 1 µM (EKVX): 82%
growth at 1 µM (NCI-H322M): 96%
growth at 1 µM [14]: 91%
growth at 100 µM [15]: 46%
growth at 100 µM (SR [16]): -11%
growth at 100 µM (NCI-H460): 10%
growth at 100 µM (NCI-H522): 23%
growth at 100 µM [17]: 53%
growth at 100 µM [18]: -49%
growth at 0.01 µM (SK-MEL-5 [19]): 93%
growth at 0.01 µM (A498): 95%
growth at 0.01 µM (SN12C [20]): 97%
growth at 0.01 µM (MCF7 [21]): 92%
growth at 1 µM (ACHN): 93%
growth at 1 µM (SN12C [22]): 81%
growth at 1 µM (MCF7 [23]): 66%
growth at 100 µM (SN12C [24]): 12%
growth at 100 µM [25]: 7%

CNC(=O)c1cc(Oc2ccc3nc(NC(=O)Nc4cc(C(F)(F)F)cc(C(F)(F)F)c4)sc3c2)ccn1
GI50 [1]: 1.43 µM
TGI [1]: 3.18 µM
CC50 [1]: 7.09 µM
growth at 0.1 µM (SR [2]): 91%
growth at 0.1 µM (KM12): 95%
growth at 0.1 µM [3]: 82%
GI50 [4]: 1.25 µM
TGI [4]: 3.16 µM
CC50 [4]: 8.01 µM
GI50 (SK-MEL-5 [26]): 0.593 µM
TGI (SK-MEL-5 [26]): 2.09 µM
CC50 (SK-MEL-5 [26]; read-out: LC50 (the source's name)): 5.87 µM
growth at 0.1 µM (Malme-3M): 90%
growth at 0.1 µM (SK-MEL-5 [5]): 99%
growth at 0.1 µM [6]: 98%
growth at 0.1 µM [7]: 109%
growth at 0.1 µM [8]: 97%
growth at 0.1 µM (MDA-MB-231): 98%
IC50 [9]: 1.23 µM
activity at 5 min, 10 µM (CYP2C9): 88.2%
IC50 [10]: > 100 µM
growth at 0.01 µM [12]: 102%
growth at 0.01 µM (NCI-H226): 84%
growth at 1 µM (SR [13]): 34%
growth at 1 µM (EKVX): 60%
growth at 1 µM (NCI-H322M): 73%
growth at 1 µM [14]: 80%
growth at 100 µM [15]: -52%
growth at 100 µM (SR [16]): -53%
growth at 100 µM (NCI-H460): -71%
growth at 100 µM (NCI-H522): -67%
growth at 100 µM [17]: -65%
growth at 100 µM [18]: -77%
growth at 0.01 µM (SK-MEL-5 [19]): 97%
growth at 0.01 µM (A498): 100%
growth at 0.01 µM (SN12C [20]): 99%
growth at 0.01 µM (MCF7 [21]): 85%
growth at 1 µM (ACHN): 32%
growth at 1 µM (SN12C [22]): 80%
growth at 1 µM (MCF7 [23]): 52%
growth at 100 µM (SN12C [24]): -60%
growth at 100 µM [25]: -75%
